For data set [1], the system named is CEM-SS cells. In words: Cytotoxicity in the CPE assay (XTT, 50% reduction in cell viability). As for the experimental part: (§1) Anti-HIV cytopathic effect inhibition assays were conducted as described (Buckheit et al. (1995) Antimicrob. Agents Chemother., 39:2718-2727). In brief, serially diluted peptides were added to a 96-well round bottom microtiter plate in triplicate. CEM-SS cells at a concentration of 2.5×10^3 cells per well and HIV-1IIIB at the appropriate pre-determined titer were sequentially added to the microtiter plate. The cultures were incubated at 5% CO2/37° C. for six days. Following the incubation, the microtiter plates were stained with XTT tetrazolium dye to evaluate the efficacy and toxicity of the test compound(s).
as §1, with “Cytopathic Effect (CPE) Inhibition Assay: The CPE assay was performed” for “Anti-HIV cytopathic effect inhibition assays were conducted”, “as previously” for “as”, “Briefly,” for “In brief,”, “compound was” for “peptides were”
On the technique in general: Formazan colour is commonly taken as a measure of viable cells.

The subject of data set [2] is HIV-1IIIB. In words: microbe, parasite or virus in culture. The method, then: as §1
as §1, with “Cytopathic Effect (CPE) Inhibition Assay: The CPE assay was performed” for “Anti-HIV cytopathic effect inhibition assays were conducted”, “as previously” for “as”, “Briefly,” for “In brief,”, “compound was” for “peptides were”

Setting [3] is: read-out: TC50, Table 1, CEM-SS cells, six days, 50% reduction in cell viability.
Where [4] appears, read: Table 1, CEM-SS cells, HIV-1IIIB, six days, 50% inhibition of virus replication.
The mark [5] stands for this setting: read-out: TC50, Table 2, CEM-S cells.
The mark [6] stands for this setting: Table 2, sequence shuffling, CEM-S cells.
[7] abbreviates: read-out: TC50, Table 3, CEM-SS cells.

No end group written: not given here.

As for “FFHHIFRGIVHVGKTIHRLVTG [Piscidin 1, reference compound]”, the CC50 in data set [1] (setting [3]) is 6.9 µM.

Turning to “GAWKNFWSSLRKGFYDGEAGRAIRR [Peptide D94, reference compound]”, the CC50 in data set [1] (setting [3]) was > 34.1 µM. In addition, the EC50 in data set [2] (setting [4]) was > 34.1 µM.

“GFGKAFHSVSNFAKKHKTA-NH2 [Styelin A, reference compound] [listing 1 of 2 here]”: the concentration giving a half-maximal response (EC50) in data set [2] (setting [4]) is > 48.5 µM.

“GFGKAFHSVSNFAKKHKTA-NH2 [Styelin A, reference compound] [listing 2 of 2 here]”: the CC50 in data set [1] (setting [3]) is > 48.5 µM.

On to GFLDIIEKIAKSW [Peptide B7], for which the CC50 in data set [1] (setting [5]) was > 65.8 µM. This substance gave an EC50 in data set [2] (setting [6]) of 10.5 µM.

In the case of “GFLSILKKVLPKVMAHMK-NH2 [Melectin, reference compound]”, the CC50 in data set [1] (setting [3]) was 7.75 µM.

On to GIFDKLAKEISIW [Peptide B5], for which, in data set [1] (setting [5]), the CC50 is > 65.8 µM. Also, the EC50 in data set [2] (setting [6]) was > 65.8 µM.

For the substance GIIDIAKKLFESW [Peptide B3], in data set [1], the CC50 is > 65.8 µM. Moreover, the EC50 in data set [2] (1IIIB) amounted to 20.1 µM.

The substance “GIWDTIKSMGKVFAGKILQNL-NH2 [Brevinin-2-related, reference compound]” registered a CC50 in data set [1] of 7.42 µM.

Take GIWSDLAEIIKKF [Peptide B6]: in data set [1] (setting [5]), the CC50 was > 65.8 µM.

Take “GKPRPYSPRPTSHPRPIRV [Drosocin, reference compound]”: in data set [1] (setting [3]), the CC50 was > 45.5 µM. The half-maximal effective concentration (EC50) in data set [2] (setting [4]) is > 45.5 µM.

For GLFDIIKKIAESW [Peptide B1], the CC50 in data set [1] (setting [5]) came out at 37 µM. The concentration giving a half-maximal response (EC50) in data set [2] (setting [6]) was 11.7 µM.

Consider “GLNTLKKVFQGLHEAIKLINNHVQ [Psuedin 1, reference compound] [listing 1 of 2 here]”, for which the EC50 in data set [2] (setting [4]) turned out to be 35.7 µM.

For the substance “GLNTLKKVFQGLHEAIKLINNHVQ [Psuedin 1, reference compound] [listing 2 of 2 here]”, in data set [1] (setting [3]), the CC50 is > 36.8 µM.

GLRRLLGRLLRRLGRLLLR [GLR-19]: in data set [1] (setting [7]), the CC50 turned out to be 25.7 µM. This substance had a concentration giving a half-maximal response (EC50) in data set [2] (Table 3, CEM-SS cells) of 4.4 µM.

As for “GLRSKIWLWVLLMIWQESNKFKKM [DRS S9, reference compound]”, the CC50 in data set [1] (setting [7]) was > 32.9 µM. The EC50 in data set [2] (Table 3, CEM-SS cells) was 31.6 µM.

On to GLRSRIWLWVLLMIWQESNRFKRM [DRS S9r3], for which the CC50 in data set [1] (setting [7]) is > 32.1 µM. This substance had an EC50 in data set [2] (Table 3, CEM-SS cells) of 1.25 µM.

As to GLWEKIDKFASII [Peptide B2], the CC50 in data set [1] (setting [5]) is > 65.8 µM. In data set [2] (setting [6]), the EC50 was > 65.8 µM.

With “GMASKAGAIAGKIAKVALKAL-NH2 [PGLa, reference compound]”, the CC50 in data set [1] (setting [3]) was > 50.8 µM. Besides, the EC50 in data set [2] (setting [4]) is > 50.8 µM.

On to “GNNRPVYIPQPRPPHPRI [Apidaecin IA, reference compound]”, for which, in data set [1] (setting [3]), the CC50 is > 47.4 µM. Also, the EC50 in data set [2] (setting [4]) was > 47.4 µM.

In data set [1], GWFDIIKKIASEL [Peptide B4] had a CC50 of 38.9 µM. This substance gave an EC50 in data set [2] (1IIIB) of 10.7 µM.

In turn, “GWFDVVKHIAKRF-NH2 [Peptide D70] [listing 1 of 2 here]” gave an EC50 in data set [2] (setting [4]) of 2.99 µM.

For “GWFDVVKHIAKRF-NH2 [Peptide D70] [listing 2 of 2 here]”, in data set [1] (setting [3]), the CC50 worked out at 10.6 µM.

With GWLKKIESIIDAF [Peptide B8], the CC50 in data set [1] (setting [5]) was > 65.8 µM. Further, in data set [2] (setting [6]), a half-maximal response (EC50) required 29.5 µM.

On to “H-GFKDLLKGAAKALVKTVLF-NH2 [Ascaphin-8, reference compound]”, for which the CC50 in data set [1] is 2.9 µM.

For “H-GLADFLNKAVGKVVDFVKS-NH2 [Desertcolin 1, reference compound]”, the CC50 in data set [1] is > 49.9 µM. Further, the concentration for a half-maximal effect (EC50) in data set [2] (1IIIB) was > 49.9 µM.

For “H-GLLGLLGSVVSHVVPAIVGHF-NH2 [Maculatin 1.3, reference compound]”, the CC50 in data set [1] stood at 8.02 µM.

For the substance “HVDKKVADKVLLLKQLRIMRLLTRL [Spinigerin, reference compound]”, the “toxicity to human cells at” value in data set [1] is ≥ 25 µM. Also, the CC50 in data set [1] (human, 6 days) was > 33.3 µM.

As for IKWKKLLRAAKRIL-NH2 [Peptide D74], the CC50 in data set [1] (setting [3]) was determined as 1.3 µM. In addition, the EC50 in data set [2] (setting [4]) was > 57.6 µM.

With “NLVSGLIEARKYLEQLHRKLKNRKV [Peptide D88] [listing 1 of 2 here]”, the EC50 in data set [2] (setting [4]) is > 33.3 µM.

Take “NLVSGLIEARKYLEQLHRKLKNRKV [Peptide D88] [listing 2 of 2 here]”: in data set [1] (setting [3]), the CC50 is > 33.3 µM.

Turning to “SWKSMAKKLKEYMEKLKQRA [Latarcin 3a, reference compound]”, the EC50 in data set [2] (>100 μg/ml defined as HIV inactive) was ~100 µg/mL.

By EC50 is commonly meant the concentration needed to bring the measured effect to its halfway point. Low values mean a more potent agent, high ones a less potent agent.

The values above are taken from patent US8722616B2, “Anti-HIV peptides and methods of use thereof” (priority 2009, dated 2014).
